{"source": "patent US7144880B2", "about": "“Compositions relating to novel compounds and targets thereof” (Regents of the University of Michigan, priority 2003, dated 2006)", "key": {"[1]": {"molecular_target": "T1, mitochondrial F1F0-ATPase (Bos taurus, UniProt P13621)", "T1 construct": "from tissue", "assay": "ATPase activity in sub-mitochondrial particles (SMPs)", "assay_type": "biochemical, bovine", "conditions": "80 μM", "excerpt": "Oligomycin, a macrolide natural product that binds to the mitochondrial F1F0-ATPase, induces a state 3 to 4 transition and generates O2^− like Bz-423. Based on these similarities, it is possible that the F1F0-ATPase is also the molecular target for Bz-423. To test this hypothesis, the effect of Bz-423 on ATPase activity in sub-mitochondrial particles (SMPs) was examined.\n>40 derivatives of Bz-423 were developed to determine the elements on this novel agent required for biological activity. […] The potency of these analogues in cell based assays correlated with the ED50 values in ATPase inhibition experiments using SMPs."}, "human OSCP": {"molecular_target": "T2, human OSCP (Homo sapiens, UniProt P48047)", "T2 construct": "made in house; host or cells: E. coli", "T2 sequence (P48047 24-213)": "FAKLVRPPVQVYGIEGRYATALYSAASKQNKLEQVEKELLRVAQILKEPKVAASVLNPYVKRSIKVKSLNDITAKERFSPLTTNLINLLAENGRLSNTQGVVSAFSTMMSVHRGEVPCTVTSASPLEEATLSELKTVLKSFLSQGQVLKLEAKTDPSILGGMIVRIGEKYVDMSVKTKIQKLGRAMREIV", "assay": "Quenching of intrinsic OSCP fluorescence on titration (binding isotherm)", "conditions": "Bz-Cl, binds less tightly", "excerpt": "Oligomycin is a macrolide natural product that binds to the mitochondrial F1F0-ATPase, induces a state 3 to 4 transition, and as a result, generates ROS (e.g., O2^−). In preferred embodiments, the present invention binds the OSCP component of the mitochondrial F1F0-ATPase. In certain embodiments, screening assays of the present invention permit detection of binding partners of the OSCP. OSCP is an intrinsically fluorescent protein. In certain embodiments, titrating a solution of test compounds of the present invention into an E. Coli sample overexpressed with OSCP results in quenching of the intrinsic OSCP fluorescence. In other embodiments, fluorescent or radioactive test compounds can be used in direct binding assays. In other embodiments, competition binding experiments can be conducted. In this type of assay, test compounds are assessed for their ability to compete with Bz-423 for binding to the OSCP. In some embodiments, the compounds of the present invention cause a reduced increase in cellular ROS levels and reduced apoptosis in cells through regulation of the OSCP gene (e.g., altering expression of the OSCP gene). In further embodiments, the present invention functions by altering the molecular motions of the ATPase motor.\nTo determine if Bz-423 indeed binds to the OSCP and the affinity of the interaction, human OSCP was overexpressed in E. coli. […]"}, "[2]": {"test_system": "ornithine decarboxylase (ODC)", "assay": "ODC activity in treated cells, conversion of 3H-ornithine to putrescine", "assay_type": "cell-based", "conditions": "cells treated 4 h", "protocol": "In these experiments, the conversion of ornithine to putrescine was quantified using ^3H-ornithine. For comparisons, control cells were treated with vehicle control or difluoromethyl ornithine (DFMO), a potent inhibitor of ornithine decarboxylase (like Bz-423, DFMO is a potent anti-proliferative agent). […] The reduction in ODC activity was paralleled by a decrease in ODC protein levels measured under the same conditions.\nAs described above, Bz-423 induced apoptosis was signaled by an ROS response that arose from MRC complex III as a result of the state 3 to 4 transition. It was next sought to determine if the ROS response, critical for apoptosis, also mediated these effects on ODC. If the ROS was required for the decrease in ODC activity, it would likewise be implicated as potentially part of the anti-proliferative response to Bz-423. To test this, Ramos cells were treated with Bz-423, DFMO, or vehicle control for 4 h. In parallel, a second group of cells was pre-incubated with MnTBAP to limit the ROS and then cultured with Bz-423, DFMO, and vehicle control."}, "cells": {"test_system": "cells", "assay_type": "cell-based"}, "[3]": {"test_system": "panel of cells in Table 2", "assay": "Antiproliferation against the panel of cells, 3 d", "assay_type": "cell-based", "conditions": "after 3 d"}, "Ramos B cells [4]": {"test_system": "Ramos B cells", "assay": "cells", "assay_type": "cell-based, human", "protocol": "Cell viability is assessed by staining with propidium iodide (PI, 1 μg/mL). PI fluorescence is measured using a FACScalibur flow cytometer (Becton Dickinson, San Diego, Calif.). Measurement of hypodiploid DNA is conducted after incubating cells in DNA-labeling solution (50 μg/mL of PI in PBS containing 0.2% Triton and 10 μg/mL RNAse A) overnight at 4 degrees C. The data is analyzed using the CellQuest software excluding aggregates."}, "Ramos B cells [5]": {"test_system": "Ramos B cells", "assay_type": "cell-based, human", "conditions": "micromolar FK506"}, "[6]": {"test_system": "isolated rat liver mitochondria", "assay": "ROS production in isolated mitochondria (DCFH oxidation to DCF)", "assay_type": "biochemical", "protocol": "Male Long Evans rats are starved overnight and sacrificed by decapitation. Liver samples are homogenized in ice cold buffer A (250 mM sucrose, 10 mM Tris, 0.1 mM EGTA, pH 7.4), and nuclei and cellular debris are pelleted (10 min, 830 g, 4° C.). Mitochondria are collected by centrifugation (10 min, 15,000 g, 4° C.), and the supernatant is collected as the S15 fraction. The mitochondrial pellet is washed three times with buffer B (250 mM sucrose, 10 mM Tris, pH 7.4), and re-suspended in buffer B at 20–30 mg/mL. Mitochondria are diluted (0.5 mg/mL) in buffer C (200 mM sucrose, 10 mM Tris, pH 7.4, 1 mM KH2PO4, 10 μM EGTA, 2.5 μM rotenone, 5 mM succinate) containing 2′,7′-dichlorodihydrofluorescin diacetate (DCFH-DA, 1 μM). For state 3 measurements, ADP (2 mM) is included in the buffer, and prior to the addition of Bz-423, mitochondria are allowed to charge for 2 min. To induce state 4, oligomycin (10 μM) is added to buffer C. […] To detect effects on O2^− and delta ψm, mitochondria are incubated for 15 min at 37° C. in buffer C with vehicle, Bz-423, or CCCP containing DHE (5 μM) or DIOC6(3) (20 nM), and aliquots are removed for analysis by fluorescence microscopy.\nO2^− production by Bz-423 may result from binding to a protein within mitochondria or a target in another compartment that signals mitochondria to generate ROS. To distinguish between these alternatives, isolated rat liver mitochondria were assayed for ROS production by monitoring the oxidation of 2′,7′-dichlorodihydrofluorescin diacetate to of 2′,7′-dichlorofluorescin in the presence and absence of Bz-423. In this assay, the rate of DCF production increased after a lag period during which endogenous reducing equivalents were consumed and the acetate moieties on the probe were hydrolyzed to yield 2′,7′-dichlorodihydrofluorescin, the redox-active species."}, "[7]": {"conditions": "Ramos B cells, 24 h, propidium iodide exclusion, flow cytometry, error ±5%, read-out: EC50 (μM), cell death"}}, "note": "Like-named read-outs stand apart in the source and are kept apart here."}
{"compound": "CN1C(=O)CN=C(c2ccc(Cl)cc2)c2cc(Cl)ccc21", "note": "[4-Cl-diazepam, 4-chlorodiazepam]", "values": [{"measurement": "Inhibition of mitochondrial ATPase activity", "setting": "[1]", "value": "do not significantly inhibit"}]}
{"compound": "CN1C(=O)C(Cc2ccc3ccccc3c2)N=C(c2ccc(Cl)cc2)c2cc(Cl)ccc21", "note": "(centres unmarked) [Bz-Cl]", "values": [{"measurement": "Kd", "setting": "human OSCP", "value": "~5", "unit": "µM"}, {"measurement": "Effect on ODC activity", "setting": "[2]", "value": "inhibited ODC activity"}, {"measurement": "Decrease of cytotoxic activity compared to Bz-423", "setting": "cells", "value": "~80", "unit": "%"}, {"measurement": "Reduction of proliferation compared with Bz-423", "setting": "[3]", "value": "comparable ED50 values"}]}
{"compound": "CN1C(=O)CN=C(c2ccc(O)cc2)c2cc(Cl)ccc21", "note": "[Compound 1]", "values": [{"measurement": "EC50", "setting": "Ramos B cells [4]; [7]", "value": "> 80", "unit": "µM"}]}
{"compound": "CN1C(=O)C(Cc2ccc3ccccc3c2)N=C(c2ccccc2)c2cc(Cl)ccc21", "note": "(centres unmarked) [Compound 2]", "values": [{"measurement": "EC50", "setting": "Ramos B cells [4]; [7]", "value": "> 80", "unit": "µM"}]}
{"compound": "Cc1cc(C2=NC(Cc3ccc4ccccc4c3)C(=O)N(C)c3ccc(Cl)cc32)ccc1O", "note": "(centres unmarked) [Compound 16]", "values": [{"measurement": "Cytotoxic potency compared with Bz-423", "setting": "Ramos B cells [4]", "value": "does not alter the activity"}, {"measurement": "EC50", "setting": "Ramos B cells [4]; assessed as described in Table 1, read-out: EC50, cell death", "value": 3, "unit": "µM"}, {"measurement": "Inhibition of compound-induced cell death by FK506", "setting": "Ramos B cells [5]", "value": "≈ 60%"}]}
{"compound": "CCC(C)N(C)C(=O)c1cc2ccccc2c(-c2ccccc2Cl)n1", "note": "(centres unmarked) [PK11195, reference compound]", "values": [{"measurement": "EC50", "setting": "Ramos B cells [4]; Homo sapiens, Ramos B cells, 24 h, propidium iodide exclusion, flow cytometry, error ±5%, read-out: EC50 (μM), cell death", "value": "> 80", "unit": "µM"}, {"measurement": "Inhibition of mitochondrial ATPase activity", "setting": "[1]", "value": "do not significantly inhibit"}]}
{"compound": "antimycin A [reference compound]", "values": [{"measurement": "Increase in rate of ROS production versus control", "setting": "[6]; state 3 respiration, aerobic, after induction phase, slopes compared to control", "value": "nearly two-fold"}, {"measurement": "ROS production in state 4 mitochondria", "setting": "[6]; state 4 respiration", "value": "is active"}]}
